In patent publication US20100216827A1 (Metabolex, Inc., priority 2008, published 2010):
Where two headings read alike, the source gives them in different places.

Target: T1, human GPR120 (Homo sapiens, UniProt Q5NUL3)
T1 construct: host or cells: HEK293 cells coexpressing Gqi5
T1 sequence (Q5NUL3 1-361): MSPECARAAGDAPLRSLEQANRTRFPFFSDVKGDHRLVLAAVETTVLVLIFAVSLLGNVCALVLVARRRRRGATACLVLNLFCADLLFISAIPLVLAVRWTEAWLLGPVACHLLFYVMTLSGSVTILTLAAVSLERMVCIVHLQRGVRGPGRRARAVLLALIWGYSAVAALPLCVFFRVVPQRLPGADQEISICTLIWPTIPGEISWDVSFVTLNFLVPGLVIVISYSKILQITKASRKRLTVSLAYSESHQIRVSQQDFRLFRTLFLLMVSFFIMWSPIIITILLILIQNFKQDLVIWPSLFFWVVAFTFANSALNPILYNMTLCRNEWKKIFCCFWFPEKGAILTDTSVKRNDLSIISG
Experiment: Intracellular Ca2+ (FLIPR Calcium 4, Flexstation) assay in human GPR120 stable HEK293 cell line coexpressing Gqi5
Assay type: cell-based
Settings: for % Activity at 5 μM: 5 μM compound compared to the maximal activity of GW9508 at 6.7 μM (100%); for EC50: human GPR120 stably expressing cells, 8 concentrations 0.00001 to 20 μM
Experimental: Human GPR120 stable cell line was purchased from Multispan Inc (26219 Eden Landing Road, Hayward, Calif. 94545). This GPR120 cell line was generated in HEK293 cells coexpressing Gqi5. In this cell line, the Flag epitope tag (DYKDDDDK) was fused to the amino terminus of human GPR120 protein.
The concentration of intracellular Ca^2+ was measured as described below. Human GPR120 cells were plated in 96 well plates (Poly-D-Lysine coated black/clear Plate, Greiner Bio-One) at 70,000 cells per well and cultured overnight in conditions of 37° C. and 5% CO2. A Ca^2+ assay dye stock solution was prepared by adding 10 mL of assay buffer (HBSS/20 mM HEPES, pH 7.4) to FLIPR Calcium 4 Assay Bulk Kit (Molecular Devices). The 10 mL of Ca^2+ assay dye solution was prepared by further diluting 0.5 mL of Ca^2+ assay dye stock solution with 10 mL of assay buffer. The medium of the cells was removed and immediately 100 μl of the Ca^2+ assay dye solution was dispensed into each well followed by incubation at 37° C. and 5% CO2 for 50 minutes to incorporate the Ca^2+ dye into the cells. The cell plate was then placed in the Flexstation (Molecular Devices) for 20 minutes at 37° C. Compounds were dissolved in 100% DMSO and diluted to desired concentrations with assay buffer and placed in Flexstation simultaneously with the cell plate for 20 minute incubation at 37° C. prior to reading. Fluorescence intensity was measured immediately following compound addition (25 μl/well) on the Flexstation at an excitation wavelength of 485 nm and an emission wavelength of 525 with 515 nm auto cutoff. The resulting increase in fluorescence intensities corresponds to increases in intracellular Ca^2+ levels.
Compounds were dissolved in 100% DMSO to a concentration of 20 mM to provide stock solutions. To determine activity against human GPR120, compounds were added with human GPR120 stably expressing cells (described above), at 8 desired concentrations ranging from 0.00001 to 20 μM, in 96 well plates and fluorescence intensities were measured for 90 seconds with 2-second intervals. An EC50 value (concentration of the GPR120 agonist where 50% of the agonist's maximal activity is observed) was calculated using the changes (Max-Min) of fluorescent intensity.
To determine percent activity for a tested compound, the fluorescence intensity value obtained at a particular concentration were compared to the maximal fluorescence intensity value obtained for reference compound GW9508 (4-[[(3-phenoxyphenyl)methyl]amino]benzene propanoic acid; British Journal of Pharmacology 2006 148, 619-628) that acts as a full agonist of the GPR120 receptor. The maximal activity of GW9508 is designated as 100% activity. Typically, the GW9508 activity reached a maximum at a concentration of approximately 6.7 μM. Activities of compounds that were tested according to this method are shown in Table 1 below and are expressed as % activity at 5 μM compound compared to the maximal activity of GW9508 at 6.7 μM.

[1] = read-out: EC50 between >1 μM and ≦10 μM

% Activity at 5 μM [%] | EC50 (read-out: EC50 ≦ 1 μM) [nM] | EC50 [1] [nM] | SMILES
79 | ≤ 1000 | – | CC(C)c1cc(COc2c(F)cc(CCC(=O)O)cc2F)n(-c2ccccc2)n1 [Example 1, 3-(3,5-difluoro-4-((3-isopropyl-1-phenyl-1H-pyrazol-5-yl)methoxy)phenyl)propanoic acid]
77 | ≤ 1000 | – | O=C(O)CCc1cc(F)c(OCc2snnc2-c2ccccc2)c(F)c1 [Example 2]
70 | – | 1000 to 10000 | O=C(O)CCc1cc(F)c(OCc2cncn2-c2ccccc2)c(F)c1 [Example 3, 3-(3,5-difluoro-4-((1-phenyl-1H-imidazol-5-yl)methoxy)phenyl)propanoic acid]
64 | – | 1000 to 10000 | O=C(O)CCc1cc(F)c(OCc2cnnn2-c2ccccc2)c(F)c1 [Example 5, 3-(3,5-difluoro-4-((1-phenyl-1H-1,2,3-triazol-5-yl)methoxy)phenyl)propanoic acid]
60 | ≤ 1000 | – | O=C(O)CCc1cc(F)c(OCc2ncoc2-c2ccccc2)c(F)c1 [Example 10, 3-(3,5-difluoro-4-((5-phenyloxazol-4-yl)methoxy)phenyl)propanoic acid]
75 | – | 1000 to 10000 | O=C(O)CCc1cc(F)c(OCc2nccn2Cc2ccccc2)c(F)c1 [Example 11, 3-(4-((1-benzyl-1H-imidazol-2-yl)methoxy)-3,5-difluorophenyl)propanoic acid]
73 | – | 1000 to 10000 | Cn1ncc(COc2c(F)cc(CCC(=O)O)cc2F)c1-c1ccccc1 [Example 13, 3-(3,5-difluoro-4-((1-methyl-5-phenyl-1H-pyrazol-4-yl)methoxy)phenyl)propanoic acid]
72 | ≤ 1000 | – | Cc1noc(-c2ccccc2)c1COc1c(F)cc(CCC(=O)O)cc1F [Example 15, 3-(3,5-difluoro-4-((3-methyl-5-phenylisoxazol-4-yl)methoxy)phenyl)propanoic acid]
78 | – | 1000 to 10000 | Cc1onc(-c2ccc(F)cc2)c1COc1c(F)cc(C2CC2C(=O)O)cc1F (centres unmarked) [Example 17, 2-(3,5-difluoro-4-((3-(4-fluorophenyl)-5-methylisoxazol-4-yl)methoxy)phenyl)cyclopropanecarboxylic acid]
77 | ≤ 1000 | – | Cc1onc(-c2ccc(F)cc2)c1COc1c(F)cc(CCC(=O)O)cc1F [Example 18, 3-(3,5-difluoro-4-((3-(4-fluorophenyl)-5-methylisoxazol-4-yl)methoxy)phenyl)propanoic acid]
63 | – | 1000 to 10000 | Cc1noc(C)c1COc1c(F)cc(CCC(=O)O)cc1F [Example 23, 3-(4-((3,5-dimethylisoxazol-4-yl)methoxy)-3,5-difluorophenyl)propanoic acid]
92 | ≤ 1000 | – | Cc1onc(-c2ccc(Cl)cc2)c1COc1c(F)cc(CCC(=O)O)cc1F [Example 24, 3-(4-((3-(4-chlorophenyl)-5-methylisoxazol-4-yl)methoxy)-3,5-difluorophenyl)propanoic acid]
100 | ≤ 1000 | – | Cc1onc(-c2ccccc2)c1C(=O)COc1c(F)cc(CCC(=O)O)cc1F [Example 26, 3-(3,5-difluoro-4-(2-(5-methyl-3-phenylisoxazol-4-yl)-2-oxoethoxy)phenyl)propanoic acid]
85 | ≤ 1000 | – | O=C(O)CCc1cc(F)c(OCc2snnc2-c2cccc(Cl)c2)c(F)c1 [Example 32, 3-(4-((4-(3-chlorophenyl)-1,2,3-thiadiazol-5-yl)methoxy)-3,5-difluorophenyl)propanoic acid]
80 | ≤ 1000 | – | Cc1nc(-c2ccccc2)c(COc2c(F)cc(C3CC3C(=O)O)cc2F)s1 (centres unmarked) [Example 33, 2-(3,5-difluoro-4-((2-methyl-4-phenylthiazol-5-yl)methoxy)phenyl)cyclopropane carboxylic acid]
74 | – | 1000 to 10000 | Cc1onc(-c2ccccc2)c1COc1c(F)cc(COCC(=O)O)cc1F [Example 34, 2-(3,5-difluoro-4-((5-methyl-3-phenylisoxazol-4-yl)methoxy)benzyloxy)acetic acid]

The remaining lines, values behind:

SMILES | % Activity at 5 μM [%] | EC50 (read-out: EC50 ≦ 1 μM) [nM] | EC50 [1] [nM]
Cc1cc(COc2c(F)cc(CCC(=O)O)cc2F)c(-c2ccccc2)o1 [Example 12, 3-(3,5-difluoro-4-((5-methyl-2-phenylfuran-3-yl)methoxy)phenyl)propanoic acid] | 70 | – | 1000 to 10000
Cc1onc(-c2ccccc2)c1COc1c(F)cc(CCC(=O)O)cc1F [Example 14, 3-(3,5-difluoro-4-((5-methyl-3-phenylisoxazol-4-yl)methoxy)phenyl)propanoic acid] | 66 | ≤ 1000 | –
Cc1onc(-c2ccccc2)c1COc1c(F)cc(C2CC2C(=O)O)cc1F (centres unmarked) [Example 16, 2-(3,5-difluoro-4-((5-methyl-3-phenylisoxazol-4-yl)methoxy)phenyl)cyclopropanecarboxylic acid] | 60 | ≤ 1000 | –
Cc1cc(-c2onc(C)c2COc2c(F)cc(CCC(=O)O)cc2F)no1 [Example 19, 3-(4-((3′,5-dimethyl-3,5′-biisoxazol-4′-yl)methoxy)-3,5-difluorophenyl)propanoic acid] | 69 | ≤ 1000 | –
O=C(O)CCc1cc(F)c(OCc2sccc2-n2cccc2)c(F)c1 [Example 20, 3-(4-((3-(1H-pyrrol-1-yl)thiophen-2-yl)methoxy)-3,5-difluorophenyl)propanoic acid] | 88 | ≤ 1000 | –
COc1ccc(-c2noc(C)c2COc2c(F)cc(CCC(=O)O)cc2F)cc1 [Example 21, 3-(3,5-difluoro-4-((3-(4-methoxyphenyl)-5-methylisoxazol-4-yl)methoxy)phenyl)propanoic acid] | 97 | ≤ 1000 | –
Cc1onc(-c2c(Cl)cccc2Cl)c1COc1c(F)cc(CCC(=O)O)cc1F [Example 22, 3-(4-((3-(2,6-dichlorophenyl)-5-methylisoxazol-4-yl)methoxy)-3,5-difluorophenyl)propanoic acid] | 75 | – | 1000 to 10000
Cc1cc(COc2c(F)cc(CCC(=O)O)cc2F)n(C(C)C)n1 [Example 25, 3-(3,5-difluoro-4-((1-isopropyl-3-methyl-1H-pyrazol-5-yl)methoxy)phenyl)propanoic acid] | 92 | – | 1000 to 10000
O=C(O)CCc1cc(F)c(OCc2ncsc2-c2ccccc2)c(F)c1 [Example 28, 3-(3,5-difluoro-4-((5-phenylthiazol-4-yl)methoxy)phenyl)propanoic acid] | 87 | ≤ 1000 | –
O=C(O)CSc1ccc(OCc2snnc2-c2ccccc2)cc1 [Example 29, 2-(4-((4-phenyl-1,2,3-thiadiazol-5-yl)methoxy)phenylthio)acetic acid] | 85 | – | 1000 to 10000
Cc1nc(-c2ccccc2)c(COc2c(F)cc(CCC(=O)O)cc2F)s1 [Example 30] | 80 | – | 1000 to 10000
O=C(O)CCc1cc(F)c(OCc2snnc2-c2ccc(F)cc2)c(F)c1 [Example 31, 3-(3,5-difluoro-4-((4-(4-fluorophenyl)-1,2,3-thiadiazol-5-yl)methoxy)phenyl)propanoic acid] | 85 | ≤ 1000 | –
